{"source": "patent US20080085243A1", "about": "“MOLECULAR MARKERS FOR D[…] RESPONSIVENESS” (SIGMA-ALDRICH COMPANY, priority 2006, published 2008)", "origin": "cited, not measured here", "system": "late stage non-small cell lung cancer (NSCLC)"}
{"molecule": "CC(=O)O[C@H]1C(=O)[C@@]2(C)[C@H]([C@H](OC(=O)c3ccccc3)[C@]3(O)C[C@H](OC(=O)[C@H](O)[C@@H](NC(=O)c4ccccc4)c4ccccc4)C(C)=C1C3(C)C)[C@]1(OC(C)=O)CO[C@@H]1C[C@@H]2O", "note": "[paclitaxel]", "values": [{"measurement": "patients who respond therapeutically", "value": "about 20%"}]}
